{"source": "patent US9061984B2", "about": "(University of Louisville Research Foundation, Inc., priority 2008, dated 2015)", "system": "several cell lines (Panel/Cell Line)", "assay": "GI50, TGI and LC50 of compound II-21 for several cell lines (Table 12)", "settings": "48-h exposure; for GI50 / CC50: Homo sapiens", "note": "Like-named read-outs stand apart in the source and are kept apart here.", "data": [{"smiles": "C(=N/Nc1ncnc2sc3c(c12)CCCC3)/c1ccccn1", "note": "[II-21]", "values": [{"measurement": "GI50", "setting": "NCI-H522, 48 h, Non-Small Cell Lung Cancer, NCI-H522", "result": 0.419, "unit": "µM"}, {"measurement": "CC50", "setting": "NCI-H522, 48 h, read-out: LC50 (M), Non-Small Cell Lung Cancer, NCI-H522", "result": "> 0.0001", "unit": "M"}, {"measurement": "GI50", "setting": "NCI/ADR-RES, 48 h, Ovarian Cancer", "result": 0.427, "unit": "µM"}, {"measurement": "CC50", "setting": "NCI/ADR-RES, 48 h, read-out: LC50 (M), Ovarian Cancer, NCI/ADR-RES", "result": "> 0.0001", "unit": "M"}, {"measurement": "GI50", "setting": "OVCAR-3, 48 h, Ovarian Cancer, OVCAR-3", "result": 0.109, "unit": "µM"}, {"measurement": "CC50", "setting": "OVCAR-3, 48 h, read-out: LC50 (M), Ovarian Cancer, OVCAR-3", "result": "4.39e-05", "unit": "M"}, {"measurement": "GI50", "setting": "OVCAR-4, 48 h, Ovarian Cancer, OVCAR-4", "result": 0.431, "unit": "µM"}, {"measurement": "CC50", "setting": "OVCAR-4, 48 h, read-out: LC50 (M), Ovarian Cancer, OVCAR-4", "result": "> 0.0001", "unit": "M"}, {"measurement": "GI50", "setting": "OVCAR-5, 48 h, Ovarian Cancer, OVCAR-5", "result": 0.823, "unit": "µM"}, {"measurement": "CC50", "setting": "OVCAR-5, 48 h, read-out: LC50 (M), Ovarian Cancer, OVCAR-5", "result": "> 0.0001", "unit": "M"}, {"measurement": "GI50", "setting": "OVCAR-8, 48 h, Ovarian Cancer, OVCAR-8", "result": 0.481, "unit": "µM"}, {"measurement": "CC50", "setting": "OVCAR-8, 48 h, read-out: LC50 (M), Ovarian Cancer, OVCAR-8", "result": "> 0.0001", "unit": "M"}, {"measurement": "GI50", "setting": "RPMI-8226, 48 h, Leukemia, RPMI-8226", "result": 0.35, "unit": "µM"}, {"measurement": "CC50", "setting": "RPMI-8226, 48 h, read-out: LC50 (M), Leukemia, RPMI-8226", "result": "> 0.0001", "unit": "M"}, {"measurement": "GI50", "setting": "RXF 393, 48 h, Renal Cancer, RXF 393", "result": 0.423, "unit": "µM"}, {"measurement": "CC50", "setting": "RXF 393, 48 h, read-out: LC50 (M), Renal Cancer, RXF 393", "result": "4.53e-05", "unit": "M"}, {"measurement": "GI50", "setting": "SF-268, 48 h, CNS Cancer, SF-268", "result": 0.356, "unit": "µM"}, {"measurement": "CC50", "setting": "SF-268, 48 h, read-out: LC50 (M), CNS Cancer, SF-268", "result": "8.3e-05", "unit": "M"}, {"measurement": "GI50", "setting": "SF-295, 48 h, CNS Cancer, SF-295", "result": 0.313, "unit": "µM"}, {"measurement": "CC50", "setting": "SF-295, 48 h, read-out: LC50 (M), CNS Cancer, SF-295", "result": "> 0.0001", "unit": "M"}, {"measurement": "GI50", "setting": "SF-539, 48 h, CNS Cancer, SF-539", "result": 0.391, "unit": "µM"}, {"measurement": "CC50", "setting": "SF-539, 48 h, read-out: LC50 (M), CNS Cancer, SF-539", "result": "2.92e-05", "unit": "M"}, {"measurement": "GI50", "setting": "SK-MEL-2, 48 h, Melanoma, SK-MEL-2", "result": 7.51, "unit": "µM"}, {"measurement": "CC50", "setting": "SK-MEL-2, 48 h, read-out: LC50 (M), Melanoma, SK-MEL-2", "result": "6.78e-05", "unit": "M"}, {"measurement": "GI50", "setting": "SK-MEL-5, 48 h, Melanoma, SK-MEL-5", "result": 0.332, "unit": "µM"}, {"measurement": "CC50", "setting": "SK-MEL-5, 48 h, read-out: LC50 (M), Melanoma, SK-MEL-5", "result": "2.36e-05", "unit": "M"}, {"measurement": "GI50", "setting": "SK-MEL-28, 48 h, Melanoma, SK-MEL-28", "result": 0.422, "unit": "µM"}, {"measurement": "CC50", "setting": "SK-MEL-28, 48 h, read-out: LC50 (M), Melanoma, SK-MEL-28", "result": "5.46e-05", "unit": "M"}, {"measurement": "GI50", "setting": "SK-OV-3, 48 h, Ovarian Cancer, SK-OV-3", "result": 0.41, "unit": "µM"}, {"measurement": "CC50", "setting": "SK-OV-3, 48 h, read-out: LC50 (M), Ovarian Cancer, SK-OV-3", "result": "> 0.0001", "unit": "M"}, {"measurement": "GI50", "setting": "SN12C, 48 h, Renal Cancer", "result": 0.426, "unit": "µM"}, {"measurement": "CC50", "setting": "SN12C, 48 h, read-out: LC50 (M), Renal Cancer, SN12C", "result": "8.1e-05", "unit": "M"}, {"measurement": "GI50", "setting": "SNB-19, 48 h, CNS Cancer, SNB-19", "result": 0.767, "unit": "µM"}, {"measurement": "CC50", "setting": "SNB-19, 48 h, read-out: LC50 (M), CNS Cancer, SNB-19", "result": "> 0.0001", "unit": "M"}, {"measurement": "GI50", "setting": "SNB-75, 48 h, CNS Cancer, SNB-75", "result": 0.585, "unit": "µM"}, {"measurement": "CC50", "setting": "SNB-75, 48 h, read-out: LC50 (M), CNS Cancer, SNB-75", "result": "4.93e-05", "unit": "M"}, {"measurement": "GI50", "setting": "SW-620, 48 h, Colon Cancer, SW-620", "result": 0.561, "unit": "µM"}, {"measurement": "CC50", "setting": "SW-620, 48 h, read-out: LC50 (M), Colon Cancer, SW-620", "result": "5.95e-05", "unit": "M"}, {"measurement": "GI50", "setting": "T47D, 48 h, Breast Cancer, T-47D", "result": 0.0764, "unit": "µM"}, {"measurement": "CC50", "setting": "T47D, 48 h, read-out: LC50 (M), Breast Cancer, T-47D", "result": "> 0.0001", "unit": "M"}, {"measurement": "GI50", "setting": "TK-10, 48 h, Renal Cancer, TK-10", "result": 0.486, "unit": "µM"}, {"measurement": "CC50", "setting": "TK-10, 48 h, read-out: LC50 (M), Renal Cancer, TK-10", "result": "> 0.0001", "unit": "M"}, {"measurement": "GI50", "setting": "U-251, 48 h, CNS Cancer, U251", "result": 0.369, "unit": "µM"}, {"measurement": "CC50", "setting": "U-251, 48 h, read-out: LC50 (M), CNS Cancer, U251", "result": "3.48e-05", "unit": "M"}, {"measurement": "GI50", "setting": "UACC-62, 48 h, Melanoma, UACC-62", "result": 0.379, "unit": "µM"}, {"measurement": "CC50", "setting": "UACC-62, 48 h, read-out: LC50 (M), Melanoma, UACC-62", "result": "4.84e-05", "unit": "M"}, {"measurement": "GI50", "setting": "UACC-257, 48 h, Melanoma, UACC-257", "result": 0.355, "unit": "µM"}, {"measurement": "CC50", "setting": "UACC-257, 48 h, read-out: LC50 (M), Melanoma, UACC-257", "result": "4.17e-05", "unit": "M"}, {"measurement": "GI50", "setting": "UO-31, 48 h, Renal Cancer, UO-31", "result": 0.286, "unit": "µM"}, {"measurement": "CC50", "setting": "UO-31, 48 h, read-out: LC50 (M), Renal Cancer, UO-31", "result": "6.3e-05", "unit": "M"}, {"measurement": "TGI", "setting": "Leukemia, CCRF-CEM", "result": 0.769, "unit": "µM"}, {"measurement": "TGI", "setting": "Leukemia, HL-60(TB)", "result": 0.407, "unit": "µM"}, {"measurement": "TGI", "setting": "Leukemia, K-562", "result": 10.8, "unit": "µM"}, {"measurement": "TGI", "setting": "Leukemia, MOLT-4", "result": 0.774, "unit": "µM"}, {"measurement": "TGI", "setting": "Leukemia, RPMI-8226", "result": 12.5, "unit": "µM"}, {"measurement": "TGI", "setting": "Leukemia, SR", "result": 0.953, "unit": "µM"}, {"measurement": "TGI", "setting": "Melanoma, M14", "result": 0.599, "unit": "µM"}, {"measurement": "TGI", "setting": "Melanoma, MALME-3M", "result": 10.3, "unit": "µM"}, {"measurement": "TGI", "setting": "Melanoma, MDA-MB-435", "result": 25.1, "unit": "µM"}, {"measurement": "TGI", "setting": "Melanoma, SK-MEL-2", "result": 25.5, "unit": "µM"}, {"measurement": "TGI", "setting": "Melanoma, SK-MEL-5", "result": 1.72, "unit": "µM"}, {"measurement": "TGI", "setting": "Melanoma, SK-MEL-28", "result": 16.7, "unit": "µM"}, {"measurement": "TGI", "setting": "Melanoma, UACC-62", "result": 6.54, "unit": "µM"}, {"measurement": "TGI", "setting": "Non-Small Cell Lung Cancer, A549/ATCC", "result": 14.9, "unit": "µM"}, {"measurement": "TGI", "setting": "Non-Small Cell Lung Cancer, EKVX", "result": 20.5, "unit": "µM"}, {"measurement": "TGI", "setting": "Non-Small Cell Lung Cancer, HOP-62", "result": 17.7, "unit": "µM"}, {"measurement": "TGI", "setting": "Non-Small Cell Lung Cancer, HOP-92", "result": 31, "unit": "µM"}, {"measurement": "TGI", "setting": "Non-Small Cell Lung Cancer, NCI-H23", "result": 34.3, "unit": "µM"}, {"measurement": "TGI", "setting": "Non-Small Cell Lung Cancer, NCI-H226", "result": 16.2, "unit": "µM"}, {"measurement": "TGI", "setting": "Non-Small Cell Lung Cancer, NCI-H322M", "result": 35, "unit": "µM"}, {"measurement": "TGI", "setting": "Non-Small Cell Lung Cancer, NCI-H460", "result": 1.73, "unit": "µM"}, {"measurement": "TGI", "setting": "Non-Small Cell Lung Cancer, NCI-H522", "result": 23.2, "unit": "µM"}, {"measurement": "TGI", "setting": "Ovarian Cancer, IGROV1", "result": 28.9, "unit": "µM"}, {"measurement": "TGI", "setting": "Ovarian Cancer, NCI/ADR-RES", "result": 58.1, "unit": "µM"}, {"measurement": "TGI", "setting": "Ovarian Cancer, OVCAR-3", "result": 14.5, "unit": "µM"}, {"measurement": "TGI", "setting": "Ovarian Cancer, OVCAR-4", "result": 26.3, "unit": "µM"}, {"measurement": "TGI", "setting": "Ovarian Cancer, OVCAR-5", "result": 31.4, "unit": "µM"}, {"measurement": "TGI", "setting": "Ovarian Cancer, OVCAR-8", "result": ">100", "unit": "µM"}, {"measurement": "TGI", "setting": "Ovarian Cancer, SK-OV-3", "result": 29.2, "unit": "µM"}, {"measurement": "TGI", "setting": "Prostate Cancer, DU-145", "result": 15.1, "unit": "µM"}, {"measurement": "TGI", "setting": "Prostate Cancer, PC-3", "result": 71.1, "unit": "µM"}, {"measurement": "TGI", "setting": "Renal Cancer, 786-0", "result": 0.947, "unit": "µM"}, {"measurement": "TGI", "setting": "Renal Cancer, A498", "result": 8.81, "unit": "µM"}, {"measurement": "TGI", "setting": "Renal Cancer, ACHN", "result": 11, "unit": "µM"}, {"measurement": "TGI", "setting": "Renal Cancer, CAKI-1", "result": 14.8, "unit": "µM"}, {"measurement": "TGI", "setting": "Renal Cancer, RXF 393", "result": 10.6, "unit": "µM"}, {"measurement": "TGI", "setting": "Renal Cancer, SN12C", "result": 15.3, "unit": "µM"}, {"measurement": "TGI", "setting": "Renal Cancer, TK-10", "result": 56.6, "unit": "µM"}, {"measurement": "TGI", "setting": "Renal Cancer, UO-31", "result": 1.65, "unit": "µM"}]}]}
